Results from ChEMBL document CHEMBL1138701, “Anti-AIDS agents. Part 62: anti-HIV activity of 2'-substituted 4-methyl-3',4'-di-O-(-)-camphanoyl-(+)-cis-khellactone (4-methyl DCK) analogs” (Bioorg Med Chem Lett, 2004).

What was measured:
[1] = tested on: Human immunodeficiency virus; assay: Concentration required to inhibit 50% of HIV (human immunodeficiency virus) replication; assay type: functional, organism-based; conditions: Human immunodeficiency virus 1
H9 = assay: Concentration required to inhibit 50% growth of uninfected H9 cells; assay type: functional, cell-based; conditions: Homo sapiens
[2] = Therapeutic index expressed as ratio of IC50 for 50% growth inhibition to EC50 for 50% replication inhibition; assay type: cell-based; conditions: human, H9 cells; read-out: TI

SMILES | EC50 [1] [µM] | IC50 (H9) [µM] | selectivity ratio [2]
Cc1cc(=O)oc2c3c(ccc12)OC[C@H](OC(=O)C12CCC(C)(C(=O)O1)C2(C)C)[C@@H]3OC(=O)C12CCC(C)(C(=O)O1)C2(C)C (stereo partly specified) | 6.9 | > 41.1 | > 6
CCCC1(C)Oc2ccc3c(C)cc(=O)oc3c2[C@@H](OC(=O)C23CCC(C)(C(=O)O2)C3(C)C)[C@H]1OC(=O)C12CCC(C)(C(=O)O1)C2(C)C (stereo partly specified) | 6.4 | > 37.6 | > 5.9
Cc1cc(=O)oc2c3c(ccc12)OC(C)(C)[C@H](OC(=O)C12CCC(C)(C(=O)O1)C2(C)C)[C@@H]3OC(=O)C12CCC(C)(C(=O)O1)C2(C)C (stereo partly specified) | 0.0059 | > 38.9 | > 6600
CC1(C)Oc2ccc3ccc(=O)oc3c2[C@@H](OC(=O)C23CCC(C)(C(=O)O2)C3(C)C)[C@H]1OC(=O)C12CCC(C)(C(=O)O1)C2(C)C (stereo partly specified) | 0.049 | > 16.1 | > 328
CCC1(CC)Oc2ccc3c(C)cc(=O)oc3c2[C@@H](OC(=O)C23CCC(C)(C(=O)O2)C3(C)C)[C@H]1OC(=O)C12CCC(C)(C(=O)O1)C2(C)C (stereo partly specified) | 2.84 | > 37.6 | > 13.2
Cc1cn([C@H]2C[C@H](N=[N+]=[N-])[C@@H](CO)O2)c(=O)[nH]c1=O [ZIDOVUDINE] | 0.04 | 1870 | 39000
CCC1(C)Oc2ccc3c(C)cc(=O)oc3c2[C@@H](OC(=O)C23CCC(C)(C(=O)O2)C3(C)C)[C@H]1OC(=O)C12CCC(C)(C(=O)O1)C2(C)C (stereo partly specified) | 0.22 | > 38.4 | > 175
